Assay [1] deals with NMDA receptor glycine B site (Rattus norvegicus, UniProt P35439). The assay is described as follows: Whole cell patch-clamp recordings, rat hippocampal neurons (NMDA/D-Serine currents). It counts as cell-based. The settings on record: NMDA 200 μM + D-Serine 1 μM, -70 mV, read-out: NMDA-PC-r-HIC-NAM - IC50. How it is done:
Antagonistic potencies of the test compounds are functionally evaluated using electrophysiological whole cell patch-clamp recordings and/or fluorometric intracellular Ca^2+-imaging (FLIPR) screens.
Cell preparation is performed as described by Parsons, et al. (Neuropharmacology, 1998, 37(6), 719-727). The female Sprague-Dawley rat is anaesthetised by placing in a saturated CO2-euthanasia chamber under further quiet CO2-influx. Under these conditions the rat loses consciousness after a few seconds and is then sacrificed by cervical dislocation. After opening the abdominal cavity, embryos (E20) are removed and stored in ice cold Ca^2+- and Mg^2+-free Hank's Buffered Salt Solution (pH 7.3), containing 4 g/l glucose (HBSS-CMF). Hippocampi are then isolated from the brains of at least 8 embryos after decapitation, transferred into ice cold HBSS-CMF and washed 3 to 4 times.
Hippocampi are pre-incubated for 8 min with a 0.66% trypsin (Sigma-Aldrich) and 0.1% (20 U/ml) DNAase solution (Sigma-Aldrich) in Ca^2+-free Phosphate Buffered Saline (PBS-CF) and washed 3 times with HBSS-CMF. Cells are then mechanically dissociated by trituration in a PBS-CF solution containing 0.05% (10 U/ml) DNAase and 0.3% of the trypsin inhibitor ovomucoid (all from Sigma-Aldrich). The cells are then centrifuged at 180×g for 10 minutes, and the cell pellet re-suspended in basal Minimum essential medium (MEM, Invitrogen, Karlsruhe, Germany), again carefully triturated to ensure maximal dissociation and finally plated in the flexiPERM inserts (Thermo Fisher Scientific, Langenselbold, Germany) at a density of 15×10^3 cells/cm^2 (0.5 ml/insert) onto poly-DL-ornithine (Sigma) and mouse laminin (Invitrogen) pre-coated plastic petri dishes. After 1 hour the cells become attached to the bottom of the dish and the inserts may be removed. The cells are then nourished with 2 ml MEM supplemented with 5% foetal calf serum (FCS) and 5% horse serum and incubated at 37° C. with 95% air and 5% CO2 at 95% humidity. After 4 days in vitro (DIV) further glial mitosis is inhibited by adding 10 μl of AraC (5 μM endconcentration). The medium is completely exchanged after an additional 2 DIV and again, but only partly (50%), after 8 DIV. The cells are used for electrophysiological recordings after 11-15 DIV.
Cells are visualised using an inverted microscope and selected for patching based upon their position and morphology. Voltage clamp recordings are made in the whole cell configuration of the patch clamp technique at a holding potential of −70 mV with the aid of an EPC-10 amplifier in combination with pipette manipulator. Patch clamp pipettes are pulled from borosilicate glass using a horizontal puller (P-97 Puller, Sutter Instruments, USA) and, when filled with intracellular solution, have resistances of 1-4 MΩ.
Solutions are delivered via a home-made gravity driven very fast perfusion system (<10 ms) including valves to switch flow on and off in combination with a stepper motor-driven double-barrelled theta glass application pipette in order to expose cells to either agonist-free or agonist-containing solutions in presence or absence of antagonist.
The intracellular solution used consists of: 120 mM CsCl, 10 mM EGTA, 1 mM MgCl2, 200 μM CaCl2, 10 mM glucose and 22 mM tetraethyl ammonium chloride (TEA-CL). The corresponding extracellular bath solution contains: 140 mM NaCl, 3 mM KCl, 10 mM glucose, 10 mM HEPES, 1.5 mM CaCl2 and 4.5 mM sucrose (all from Sigma-Aldrich) pH 7.3, and is supplemented with 0.3 μM tetrodotoxin (TTX, Tocris, Bristol, U.K.) to block voltage-activated sodium channels and 0.25 μM bicuculline (Sigma-Aldrich) to block GABAA receptors. […]
On the technique in general: In patch-clamp work, channel activity is measured electrically.

Assay [2] deals with T1, glycine binding pocket of the NMDA receptor (Rattus norvegicus, UniProt P35439).
T1 construct: For isolation of the cell membranes, the cortices are homogenized; from tissue; host or cells: rat cerebral cortex membranes (male Sprague-Dawley)
In words: [3H]MDL-105,519 displacement studies (rat cortical membranes). The settings on record: displacement of 2 nM [3H]-MDL-105,519, rat cortical membranes; read-out: NMDA-MDL 105519-r-CTX - IC50.

One may read the IC50 as the concentration at which inhibition is half-maximal. For the compound `O=C(O)Cc1ccccc1NC(=O)COc1cc(C(=O)O)cc2cc(Cl)cc(Cl)c12` [Example 15, 4-[(2-Carboxymethylphenylcarbamoyl)-methoxy]-5,7-dichloronaphthalene-2-carboxylic acid], the half-inhibitory concentration (IC50) turned out to be 356 nM in assay [1] and 503 nM in assay [2].

In the case of `O=C(O)Cc1cccc(NC(=O)COc2cc(C(=O)O)cc3cc(Cl)cc(Cl)c23)c1` [Example 13, 4-[(3-Carboxymethylphenylcarbamoyl)-methoxy]-5,7-dichloronaphthalene-2-carboxylic acid], the concentration for half-maximal inhibition (IC50) in assay [1] amounted to 178 nM; in assay [2], 457 nM.

In the case of `O=C(O)COc1ccccc1NC(=O)COc1cc(C(=O)O)cc2cc(Cl)cc(Cl)c12` [Example 42, 4-[(2-Carboxymethoxyphenylcarbamoyl)-methoxy]-5,7-dichloronaphthalene-2-carboxylic acid], the IC50 in assay [1] was determined as 50 nM; in assay [2], 55 nM.

As for `NCc1ccc(NC(=O)COc2cc(C(=O)O)cc3cc(Cl)cc(Cl)c23)c(OCC(=O)O)c1` [Example 34, 4-[(4-Aminomethyl-2-carboxymethoxyphenylcarbamoyl)-methoxy]-5,7-dichloronaphthalene-2-carboxylic acid], the values for the IC50 in assay [1] and in assay [2] were 23 nM and 11.9 nM, respectively.

As to `O=C(O)COc1ccccc1CNC(=O)COc1cc(C(=O)O)cc2cc(Cl)cc(Cl)c12` [Example 59, 4-[(2-Carboxymethoxy-benzylcarbamoyl)-methoxy]-5,7-dichloro-naphthalene-2-carboxylic acid], the 50% inhibitory concentration (IC50) in assay [1] is 59 nM; in assay [2], 83 nM.

On to `O=C(O)Cc1ccc(NC(=O)COc2cc(C(=O)O)cc3cc(Cl)cc(Cl)c23)cc1` [Example 7, 4-[(4-Carboxymethylphenylcarbamoyl)-methoxy]-5,7-dichloronaphthalene-2-carboxylic acid], for which the IC50 amounted to 510 nM in assay [1] and 958 nM in assay [2].

With `O=C(COc1cc(C(=O)O)cc2cc(Cl)cc(Cl)c12)Nc1ccccc1CO` [Example 5, 5,7-Dichloro-4-[(2-hydroxymethylphenylcarbamoyl)-methoxy]-naphthalene-2-carboxylic acid], the results for the IC50 in assay [1] and in assay [2] were 258 nM and 562 nM, respectively.

On to `O=C(COc1cc(C(=O)O)cc2cc(Cl)cc(Cl)c12)Nc1ccccc1OCc1nnn[nH]1` [Example 60, 5,7-Dichloro-4-{[2-(1H-tetrazol-5-ylmethoxy)-phenylcarbamoyl]-methoxy}-naphthalene-2-carboxylic acid], for which the IC50 in assay [1] stood at 65 nM; in assay [2], 203 nM.

For the compound `O=C(O)COc1cc(C(=O)O)cc2cc(Cl)cc(Cl)c12` [Example 1, 4-Carboxymethoxy-5,7-dichloronaphthalene-2-carboxylic acid], the IC50 was 850 nM in assay [1] and 1180 nM in assay [2].

For `O=C(COc1cc(C(=O)O)cc2cc(Cl)cc(Cl)c12)NCc1ccccc1` [Example 18, 4-(Benzylcarbamoylmethoxy)-5,7-dichloro-naphthalene-2-carboxylic acid], the IC50 turned out to be 465 nM in assay [1] and 988 nM in assay [2].

For the compound `CN(C(=O)COc1cc(C(=O)O)cc2cc(Cl)cc(Cl)c12)c1ccccc1C(=O)O` [Example 20, 4-{[(2-Carboxyphenyl)-methylcarbamoyl]-methoxy}-5,7-dichloronaphthalene-2-carboxylic acid], the concentration for half-maximal inhibition (IC50) in assay [1] was found to be 198 nM; in assay [2], 405 nM.

As to `COCC(Oc1cc(C(=O)O)cc2cc(Cl)cc(Cl)c12)C(=O)Nc1ccccc1OC` (stereo not shown) [Example 74, 5,7-Dichloro-4-[2-methoxy-1-(2-methoxy-phenylcarbamoyl)-ethoxy]-naphthalene-2-carboxylic acid], the IC50 came to 288 nM in assay [1] and 1010 nM in assay [2].

On to `O=C(COc1cc(C(=O)O)cc2cc(Cl)cc(Cl)c12)Nc1ccccc1C(=O)O` [Example 3, 4-[(2-Carboxy-phenylcarbamoyl)-methoxy]-5,7-dichloro-naphthalene-2-carboxylic acid], for which the concentration for half-maximal inhibition (IC50) was 493 nM in assay [1] and 765 nM in assay [2].

Turning to `O=C(O)c1cc(OCC(=O)N2CCOc3c(CO)cccc32)c2c(Cl)cc(Cl)cc2c1` [Example 78, 5,7-Dichloro-4-[2-(8-hydroxymethyl-2,3-dihydro-benzo[1,4]oxazin-4-yl)-2-oxo-ethoxy]-naphthalene-2-carboxylic acid], the IC50 was 253 nM in assay [1] and 988 nM in assay [2].

On to `O=C(O)c1cc(OCC(=O)N2CCCc3ccccc32)c2c(Cl)cc(Cl)cc2c1` [Example 50, 5,7-Dichloro-4-[2-(3,4-dihydro-2H-quinolin-1-yl)-2-oxo-ethoxy]-naphthalene-2-carboxylic acid], for which the half-inhibitory concentration (IC50) came to 542 nM in assay [1] and 1190 nM in assay [2].

For `O=C(COc1cc(C(=O)O)cc2cc(Cl)cc(Cl)c12)Nc1ccccc1OCC(=O)N1CCOCC1` [Example 54, 5,7-Dichloro-4-{[2-(2-morpholin-4-yl-2-oxo-ethoxy)-phenylcarbamoyl]-methoxy}-naphthalene-2-carboxylic acid], the IC50 in assay [1] worked out at 169 nM; in assay [2], 228 nM.

For `CN(C(=O)COc1cc(C(=O)O)cc2cc(Cl)cc(Cl)c12)c1ccc(C(=O)O)cc1` [Example 14, 4-{[(4-Carboxy-phenyl)-methylcarbamoyl]-methoxy}-5,7-dichloronaphthalene-2-carboxylic acid], the half-maximal inhibitory concentration (IC50) in assay [1] turned out to be 727 nM; in assay [2], 4340 nM.

The values above are taken from US20120220577A1, “GLYCINE B ANTAGONISTS” (Merz Pharma GmbH & Co KgaA, priority 2009, published 2012).
